According to paper PMC6901909, “Synergy Pattern of Short Cationic Antimicrobial Peptides Against Multidrug-Resistant Pseudomonas aeruginosa” (Frontiers in Microbiology, 2019):
Converted amounts (≈) assume the structure as drawn. Read-outs that look alike come from different tables or passages of the source.

Columns and labels:
Experiment in all cases: microbe, parasite or virus in culture
Assay type in all cases: cell-based, Pseudomonas aeruginosa
[1] = test system: MDR P. aeruginosa PA 910; conditions: Pseudomonas aeruginosa
Procedure, shortened: (§1)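 Clinical and municipal waste-water MDR isolates were tested by broth microdilution in Mueller-Hinton broth with twofold serial dilutions at 2–5 10^5 CFU/ml. Plates were incubated 18 h at 37°C in polypropylene plates. MIC was read visually.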

[2] = test system: MDR P. aeruginosa PA 915; conditions: Pseudomonas aeruginosa; conventional antibiotics; microdilution, Mueller-Hinton broth, 2–5 10^5 CFU/ml, 18 h at 37°C, read visually; at least three repeats (n = 3)
Procedure, shortened: as §1

[3] = test system: MDR P. aeruginosa PA 919; conditions: Pseudomonas aeruginosa; conventional antibiotics; microdilution, Mueller-Hinton broth, 2–5 10^5 CFU/ml, 18 h at 37°C, read visually; at least three repeats (n = 3)
Procedure, shortened: as §1

[4] = test system: MDR P. aeruginosa PA 923; conditions: Pseudomonas aeruginosa; conventional antibiotics; microdilution, Mueller-Hinton broth, 2–5 10^5 CFU/ml, 18 h at 37°C, read visually; at least three repeats (n = 3)
Procedure, shortened: as §1

[5] = test system: MDR P. aeruginosa PA 927; conditions: Pseudomonas aeruginosa; conventional antibiotics; microdilution, Mueller-Hinton broth, 2–5 10^5 CFU/ml, 18 h at 37°C, read visually; at least three repeats (n = 3)
Procedure, shortened: as §1

[6] = test system: MDR P. aeruginosa PA253; conditions: Pseudomonas aeruginosa; conventional antibiotics; microdilution, Mueller-Hinton broth, 2–5 10^5 CFU/ml, 18 h at 37°C, read visually; at least three repeats (n = 3)
Procedure, shortened: as §1

[7] = test system: P. aeruginosa PA01-wt; conditions: Pseudomonas aeruginosa, PA01WT; conventional antibiotics; microdilution, Mueller-Hinton broth, 2–5 10^5 CFU/ml, 18 h at 37°C, read visually; at least three repeats (n = 3)
[8] = 18 h, antibiotic alone, as listed in the FIC table, read-out: MIC against PA910 in μM (antibiotics, head of Table 4)
[9] = conventional antibiotics, microdilution, Mueller-Hinton broth, 2–5 10^5 CFU/ml, 18 h at 37°C, read visually, at least three repeats (n = 3), read-out: MIC PA 910

SMILES	MIC [1, 8] [µM]	MIC [1, 9] [µM]	MIC [2] [µM]	MIC [3] [µM]	MIC [4] [µM]	MIC [5] [µM]	MIC [6] [µM]	MIC [7] [µM]
CC[C@H]1OC(=O)[C@H](C)[C@@H](O[C@H]2C[C@@](C)(OC)[C@@H](O)[C@H](C)O2)[C@H](C)[C@@H](O[C@@H]2O[C@H](C)C[C@H](N(C)C)[C@H]2O)[C@](C)(O)C[C@@H](C)C(=O)[C@H](C)[C@@H](O)[C@]1(C)O [Erythromycin]	128	128 (≈ 93.9 µg/mL)	64 (≈ 47 µg/mL)	128 (≈ 93.9 µg/mL)	256 (≈ 188 µg/mL)	16 (≈ 11.7 µg/mL)	64 (≈ 47 µg/mL)	128 (≈ 93.9 µg/mL)
CO/N=C(\C(=O)N[C@@H]1C(=O)N2C(C(=O)[O-])=C(C[N+]3(C)CCCC3)CS[C@H]12)c1csc(N)n1 [Cefepime]	128	64 (≈ 30.8 µg/mL)	32 (≈ 15.4 µg/mL)	16 (≈ 7.69 µg/mL)	64 (≈ 30.8 µg/mL)	128 (≈ 61.5 µg/mL)	> 128	8 (≈ 3.84 µg/mL)

Next, values leading:

MIC [1, 8] [µM]	MIC [1, 9] [µM]	MIC [2] [µM]	MIC [3] [µM]	MIC [4] [µM]	MIC [5] [µM]	MIC [6] [µM]	MIC [7] [µM]	SMILES
32	32 (≈ 15 µg/mL)	64 (≈ 29.9 µg/mL)	64 (≈ 29.9 µg/mL)	32 (≈ 15 µg/mL)	32 (≈ 15 µg/mL)	64 (≈ 29.9 µg/mL)	0.25 to 0.5 (≈ 0.117 to 0.234 µg/mL)	NC[C@H]1O[C@H](O[C@H]2[C@H](O)[C@@H](O[C@H]3O[C@H](CO)[C@@H](O)[C@H](N)[C@H]3O)[C@H](N)C[C@@H]2N)[C@H](N)C[C@@H]1O [Tobramycin]
> 128	> 128	> 128	16 (≈ 4.79 µg/mL)	> 128	> 128	> 128	2 (≈ 0.599 µg/mL)	C[C@@H](O)[C@H]1C(=O)N2C(C(=O)O)=C(SCCN=CN)C[C@H]12 [Imipenem]
128	128 (≈ 61.1 µg/mL)	128 to 256 (≈ 61.1 to 122 µg/mL)	128 (≈ 61.1 µg/mL)	128 (≈ 61.1 µg/mL)	128 (≈ 61.1 µg/mL)	> 256	1 (≈ 0.478 µg/mL)	CNC(C)C1CCC(N)C(OC2C(N)CC(N)C(OC3OCC(C)(O)C(NC)C3O)C2O)O1 (stereo not shown) [Gentamycin]
